We go through seven compounds from ChEMBL document CHEMBL1135456, “Inhibition of MIF bioactivity by rational design of pharmacological inhibitors of MIF tautomerase activity” (J Med Chem, 2002).

SMILES strings stand for the structures.

The assay concerns the target T1, Macrophage migration inhibitory factor (Homo sapiens, UniProt P14174).
T1 sequence (P14174 whole entry): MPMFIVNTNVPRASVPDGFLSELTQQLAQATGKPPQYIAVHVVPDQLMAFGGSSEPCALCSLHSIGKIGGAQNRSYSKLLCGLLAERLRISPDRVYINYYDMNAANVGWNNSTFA
Nature of the assay: Inhibition of human macrophage migration inhibitory factor tautomerase (MIF) activity.
The term IC50 denotes the midpoint of a concentration-inhibition curve. A low value points to greater potency in that assay. For the compound `COC(=O)[C@H](CO)/N=C/c1ccc(O)cc1`, 100 µM corresponded to half-maximal inhibition (IC50). The figure for `COC(=O)[C@H](CCSC)/N=C/c1ccc(O)cc1` is 100 µM. `COC(=O)[C@@H](Cc1ccc(O)cc1)/N=C/c1ccc(O)cc1` showed an IC50 of 10 µM. This IC50 is about 10-fold lower than that of the compound before. Regarding `CC[C@H](/N=C/c1ccc(O)cc1)C(=O)OC`, the midpoint of inhibition, the IC50, lay at 70 µM. `COC(=O)[C@H](C)/N=C/c1ccc(O)cc1` came in with an IC50 greater than 100 µM. With `COC(=O)[C@@H](Cc1ccccc1)/N=C/c1ccc(O)cc1`, 50 µM corresponded to half-maximal inhibition (IC50).

In the case of `COC(=O)[C@H](CC(C)C)/N=C/c1ccc(O)cc1`, the IC50 was greater than 100 µM.
